Experimental data taken from US9429582B2, “Tyrosine-phosphorylated WBP2, a novel cancer target and biomarker” (National University of Singapore, priority 2010, dated 2016).

Key:
vector-expressing MCF7 = test: Cell proliferation (MTS / cell numbers) of vector-expressing MCF7; type: cell-based, human
Experimental: (§1) A: Whole cell lysates from vector, WBP2-WT, WBP2-Y192-231E mutant and WBP2-Y192-231F mutant expressing MCF7 or Y192-231E mutant expressing MCF7 with WBP2 knockdown were used for IB analysis with antibodies indicated. B: Vector, WBP2-WT, WBP2-Y192-231E mutant or WBP2-Y192-231F mutant-expressing MCF7 were co-transfected with TOPFlash (top panel) or ERE-Luciferase (bottom panel) reporter construct. For cells co-transfected ERE-luciferase, they were either left alone or stimulated with 50 ng/ml Wnt3a ligand for 16 hrs. TCF/ERα luciferase activities in various conditions were then assayed. **P<0.01, ***P<0.001, Student's t-test (2-tailed). C: Vector or WBP2-Y192-231E mutant-expressing MCF7 were treated with indicated concentrations of Tamoxifen(Tam) and/or FH535. Cell numbers were measured. D: Whole cell lysates from WBP2-Y192-231E mutant-expressing MCF7 treated with 2 μM Tam and/or 15 μM FH5353 were harvested at day 2-4 post-treatment and used for IB analysis with antibodies indicated.
Whole cell lysates from vector, WBP2-WT, WBP2-Y192-231E mutant and WBP2-Y192-231F mutant expressing MCF7 (A) or Y192-231E mutant expressing MCF7 with WBP2 knockdown (B) were used for IB analysis with antibodies indicated. Their expression levels were quantified in three independent experiments and the averages were presented relative to actin. Representative blots (order in lanes from left to right: vector, WBP2, Y192-231E, Y192F) were presented as insets to the bar graphs. **P<0.01, ***P<0.001, Student's t-test (2-tailed) relative to vector. […] TCF(C)/ER[…](D) luciferase activities in various conditions were then assayed and analyzed in relative to untreated vector control. **P<0.01, ***P<0.001, Student's t-test (2-tailed). […] Cell numbers were measured daily and compared in relative to vehicle treated vector-expressing cells on Day 0. […] Cell numbers were measured and compared in relative to vehicle-treated cells. Their […] were analyzed statistically with SPSS 13.0. […] Cell numbers were measured on day 2 and day 4 and compared in relative to vehicle-treated control at each day (Top Panel). […]

WBP2 = test: Immunoblot of WBP2 expression in drug-treated WBP2-Y192-231E mutant-expressing MCF7; type: cell-based, human; details: Y192-231E-expressing MCF7; 15 μM FH535; day 2-4 post-treatment
Experimental: as §1, with “C: Vector or WBP2-Y192-231E mutant-expressing MCF7 were treated with indicated concentrations of Tamoxifen(Tam) and/or FH535.” left out, “D: Whole cell lysates from WBP2-Y192-231E mutant-expressing MCF7 treated with 2 μM Tam and/or 15 μM FH5353 were harvested at day 2-4 post-treatment and used for IB analysis with antibodies indicated.” left out
Whole cell lysates from vector, WBP2-WT, WBP2-Y192-231E mutant and WBP2-Y192-231F mutant expressing MCF7 (A) or Y192-231E mutant expressing MCF7 with WBP2 knockdown (B) were used for IB analysis with antibodies indicated. Their expression levels were quantified in three independent experiments and the averages were presented relative to actin. […] TCF(C)/ER[…](D) luciferase activities in various conditions were then assayed and analyzed in relative to untreated vector control. **P<0.01, ***P<0.001, Student's t-test (2-tailed). […] Cell numbers were measured daily and compared in relative to vehicle treated vector-expressing cells on Day 0. […] Cell numbers were measured and compared in relative to vehicle-treated cells. […]

Cc1cc([N+](=O)[O-])ccc1NS(=O)(=O)c1cc(Cl)ccc1Cl [FH535]
inhibition of growth / reduction of proliferation (vector-expressing MCF7; MCF7 cells expressing vector, day 4, 100 nM fulvestrant or 15 μM FH535): about 30% | growth inhibition, dose dependence (vector-expressing MCF7; vector stable transfectant, 0-50 μM FH535 for 2 days): dose dependent growth inhibition | WBP2 expression (WBP2): without affecting
